# Data as given in patent publication US20050101783A1, “N-(heterocycle-methyl)alkylamine derivative, process for producing the same, and bactericide” (priority 2000, published 2005).
# What was measured:
# Candida albicans = assay: Antibacterial test to Candida albicans (96-hole plate, IC80); type: cell-based; settings: cultivated at 35° C. for 72 hours, absorbance at 540 nm
# Description: (Antibacterial Test to Candida albicans) In the test examples, a test was performed on the antibacterial of the compounds according to the present invention to Candida albicans in the methods later described. The culture dilution train containing each compound was prepared by using a 96-hole flat-bottomed plate, and the inoculation mold solution controlled at 1 to 5×10^3 cell/ml beforehand of 10 μl was added to each hole on the plate. After the inoculation, the molds were cultivated at 35° C. for 72 hours, and the propagation of the mold was evaluated by measuring the absorbance at 540 nm. With such a test, the propagation of the mold in this case was compared with the propagation of the mold in the chemical-free test area to find the concentration of a compound where the propagation rate of the mold is suppressed by 80% as IC 80 (80% growth inhibition concentration).
# Aspergillus fumigatus = assay: Antibacterial test to Aspergillus fumigatus (96-hole plate, IC80); type: cell-based; settings: YNB culture with 0.22% low melting point-agarose, 1×10^4 cell/ml, 25° C., 72 hours, absorbance at 620 nm
# Description: (Antibacterial Test to Aspergillus fumigatus)
# In the test example, a test was performed on the antibacterial of the compounds according to the present invention to Aspergillus fumigatus in the method later described.
# Aspergillus fumigatus was cultivated in Sabouraud's agar at 37° C. for 3 days, after the spores to be used for the test were formed, the spore suspension was prepared. The spore suspension was suspended in YNB culture to which a 0.22% low melting point-agarose was added so as to allow the final concentration to be 1×10^4 cell/ml, and the solution was poured into each hole on a 96-hole flat-bottomed plate. Next, the dilution trains using each of the compounds according to the present invention were added, the solution was cultivated at 25° C. for 72 hours, and the propagation rate of the mold was evaluated by measuring the absorbance at 620 nm. With such a test, the propagation rate of the mold in the chemical-free test area was compared with this case to find the concentration of the compound where the propagation rate of the mold is suppressed by 80% as IC 80 (80% growth inhibition concentration).
smiles,measurement,setting,value
"CC(C)(CNCc1cnccn1)Cc1ccc(C(C)(C)C)cc1 [Compound I-4, N-[3-(4-t-butylphenyl)-2,2-dimethylpropyl]-2-pyrazylmethylamine]",80% Growth Inhibition Concentration (IC80),Candida albicans,75 µg/mL
same,80% Growth Inhibition Concentration (IC80),Aspergillus fumigatus,75 µg/mL
Cn1cc(CNCC(C)(C)Cc2ccc(C(C)(C)C)cc2)cn1 [Compound I-6],80% Growth Inhibition Concentration (IC80),Candida albicans,18 µg/mL
same,80% Growth Inhibition Concentration (IC80),Aspergillus fumigatus,9 µg/mL
CC(C)(CNCc1ccncn1)Cc1ccc(C(C)(C)C)cc1 [Compound I-10],80% Growth Inhibition Concentration (IC80),Candida albicans,75 µg/mL
same,80% Growth Inhibition Concentration (IC80),Aspergillus fumigatus,38 µg/mL
CC(C)(CNCc1c[nH]cn1)Cc1ccc(C(C)(C)C)cc1 [Compound I-11],80% Growth Inhibition Concentration (IC80),Candida albicans,150 µg/mL
CC(C)(CNCc1c[nH]cn1)Cc1ccc(F)cc1F [Compound I-12],80% Growth Inhibition Concentration (IC80),Candida albicans,18 µg/mL
